Experimental data from paper PMC5761851, “Application of a phenotypic drug discovery strategy to identify biological and chemical starting points for inhibition of TSLP production in lung epithelial cells” (PLoS ONE, 2018).
Where two headings read alike, the source gives them in different places.

Experiments:
[1] = test system: Phosphorylation of Akt in THP1 cells; assay: PI3Kδ dependent pAkt phosphorylation in M-CSF stimulated THP-1 cells; format: cell-based
Method: Quantification of enzymatic p38 activity and p38-dependent TNF production in THP-1 cells was performed as previously described. Enzymatic Syk kinase activity assays and Syk dependent LAD2 cells degranulation assays were performed as previously described. PI3Kδ dependent pAkt phosphorylation in macrophage colony-stimulating factor (M-CSF) stimulated THP-1 cells was measured as previously described.

[2] = test system: human primary cell culture and co-culture systems; assay: BioMAP Diversity PLUS phenotypic profiling; format: cell-based
Text: The concept of the BioMAP® Diversity PLUS™ Platform™ (DiscoverX) has been previously described. The platform is comprised of 12 specific combinations of human primary cell culture and co-culture systems stimulated with a range of physiological and disease relevant stimuli (S2 Table). The resulting activities define a bioactivity fingerprint that was used to search for similar patterns of biological responses across the BioMAP® reference database of >3,000 compounds, biologics, approved drugs and experimental agents. Compound 4 was tested at 0.111 μM, 0.333 μM, 1 μM and 3 μM concentrations.

A2B = biological target: T1, A2B (Homo sapiens, UniProt P29275); assay: BioPrint panel: A2B (h) (antagonist); format: binding; settings: 1 micromolar, read-out: percentage of inhibition of activity
T1 construct: purchased Eurofins Pharma Discovery Services (KinaseProfiler; Cerep BioPrint panel)
T1 sequence (P29275 whole entry): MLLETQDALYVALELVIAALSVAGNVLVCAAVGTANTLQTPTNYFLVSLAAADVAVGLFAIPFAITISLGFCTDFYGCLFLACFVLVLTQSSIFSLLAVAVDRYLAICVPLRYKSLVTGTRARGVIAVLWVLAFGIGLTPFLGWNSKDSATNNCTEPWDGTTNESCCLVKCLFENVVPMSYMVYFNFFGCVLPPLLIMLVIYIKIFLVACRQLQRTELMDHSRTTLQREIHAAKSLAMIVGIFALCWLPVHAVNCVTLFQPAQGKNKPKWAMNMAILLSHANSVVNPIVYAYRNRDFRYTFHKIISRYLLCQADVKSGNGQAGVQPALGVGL
Text: (§1) Supplement pone.0189247.s004.xlsx, sheet "Bioprint Selectivity Panel" | column: %

BZD (central) = assay: BioPrint panel: BZD (central) (agonist); format: binding; settings: 1 micromolar
Text: as §1

D2S = biological target: T2, D2S (Homo sapiens, UniProt P14416); assay: BioPrint panel: D2S (h) (agonist); format: binding; settings: 1 micromolar, read-out: percentage of inhibition of activity
T2 construct: purchased Eurofins Pharma Discovery Services (KinaseProfiler; Cerep BioPrint panel)
T2 sequence (P14416 1-414 isoform P14416-2): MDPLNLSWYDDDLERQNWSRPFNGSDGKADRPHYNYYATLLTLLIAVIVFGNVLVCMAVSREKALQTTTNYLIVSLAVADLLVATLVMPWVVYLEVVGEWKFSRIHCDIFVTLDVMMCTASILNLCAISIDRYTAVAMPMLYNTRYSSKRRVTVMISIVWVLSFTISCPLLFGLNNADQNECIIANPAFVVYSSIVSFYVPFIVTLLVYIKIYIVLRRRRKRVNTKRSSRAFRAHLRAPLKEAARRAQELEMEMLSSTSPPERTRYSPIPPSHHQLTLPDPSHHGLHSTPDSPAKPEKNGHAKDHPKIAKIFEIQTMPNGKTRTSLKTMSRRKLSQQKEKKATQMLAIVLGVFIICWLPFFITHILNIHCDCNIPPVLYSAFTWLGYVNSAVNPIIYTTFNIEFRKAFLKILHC
Text: as §1

ETA = biological target: T3, ETA (Homo sapiens, UniProt P25101); assay: BioPrint panel: ETA (h) (agonist); format: binding; settings: 1 micromolar, read-out: percentage of inhibition of activity
T3 construct: purchased Eurofins Pharma Discovery Services (KinaseProfiler; Cerep BioPrint panel)
T3 sequence (P25101 21-427): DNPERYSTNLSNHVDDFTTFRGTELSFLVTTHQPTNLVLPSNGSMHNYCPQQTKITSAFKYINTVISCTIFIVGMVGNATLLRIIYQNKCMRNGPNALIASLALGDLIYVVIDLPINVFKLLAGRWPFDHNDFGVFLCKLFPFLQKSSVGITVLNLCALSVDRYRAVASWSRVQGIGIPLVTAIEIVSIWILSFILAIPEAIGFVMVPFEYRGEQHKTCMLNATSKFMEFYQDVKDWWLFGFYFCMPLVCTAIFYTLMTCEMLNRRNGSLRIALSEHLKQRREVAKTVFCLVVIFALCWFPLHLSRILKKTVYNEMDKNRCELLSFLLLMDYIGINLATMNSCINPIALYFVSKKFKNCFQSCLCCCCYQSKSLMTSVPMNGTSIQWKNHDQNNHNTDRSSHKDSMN
Text: as §1

GABAA1 (a1, b2, g2) = biological target: T4, GABAA1 (a1, b2, g2) (Homo sapiens, UniProt P14867+P47870); assay: BioPrint panel: GABAA1 (h) (a1, b2, g2)(agonist); format: binding; settings: 1 micromolar, read-out: percentage of inhibition of activity
T4 construct: purchased Eurofins Pharma Discovery Services (KinaseProfiler; Cerep BioPrint panel)
Text: as §1

H4 = biological target: T5, H4 (Homo sapiens, UniProt Q9H3N8); assay: BioPrint panel: H4 (h) (agonist); format: binding; settings: 1 micromolar, read-out: percentage of inhibition of activity
T5 construct: purchased Eurofins Pharma Discovery Services (KinaseProfiler; Cerep BioPrint panel)
Text: as §1

BLT1 (LTB4) = biological target: T6, BLT1 (LTB4) (Homo sapiens, UniProt Q15722); assay: BioPrint panel: BLT1 (LTB4) (h) (agonist); format: binding; settings: 1 micromolar, read-out: percentage of inhibition of activity
T6 construct: purchased Eurofins Pharma Discovery Services (KinaseProfiler; Cerep BioPrint panel)
Text: as §1

motilin = biological target: T7, motilin (Homo sapiens, UniProt O43193); assay: BioPrint panel: motilin (h) (agonist); format: binding; settings: 1 micromolar, read-out: percentage of inhibition of activity
T7 construct: purchased Eurofins Pharma Discovery Services (KinaseProfiler; Cerep BioPrint panel)
T7 sequence (O43193 whole entry): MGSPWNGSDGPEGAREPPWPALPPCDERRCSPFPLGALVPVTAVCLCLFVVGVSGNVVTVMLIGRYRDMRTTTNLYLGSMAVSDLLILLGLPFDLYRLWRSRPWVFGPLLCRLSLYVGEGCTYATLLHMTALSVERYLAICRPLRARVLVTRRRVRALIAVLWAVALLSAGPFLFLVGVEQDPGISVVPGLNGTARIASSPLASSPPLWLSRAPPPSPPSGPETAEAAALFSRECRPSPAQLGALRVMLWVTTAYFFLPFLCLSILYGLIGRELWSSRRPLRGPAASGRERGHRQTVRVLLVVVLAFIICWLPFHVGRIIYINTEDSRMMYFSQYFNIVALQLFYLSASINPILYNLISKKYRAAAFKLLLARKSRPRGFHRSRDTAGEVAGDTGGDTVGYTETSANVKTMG
Text: as §1

Y1 = biological target: T8, Y1 (Homo sapiens, UniProt P25929); assay: BioPrint panel: Y1 (h) (agonist); format: binding; settings: 1 micromolar, read-out: percentage of inhibition of activity
T8 construct: purchased Eurofins Pharma Discovery Services (KinaseProfiler; Cerep BioPrint panel)
T8 sequence (P25929 whole entry): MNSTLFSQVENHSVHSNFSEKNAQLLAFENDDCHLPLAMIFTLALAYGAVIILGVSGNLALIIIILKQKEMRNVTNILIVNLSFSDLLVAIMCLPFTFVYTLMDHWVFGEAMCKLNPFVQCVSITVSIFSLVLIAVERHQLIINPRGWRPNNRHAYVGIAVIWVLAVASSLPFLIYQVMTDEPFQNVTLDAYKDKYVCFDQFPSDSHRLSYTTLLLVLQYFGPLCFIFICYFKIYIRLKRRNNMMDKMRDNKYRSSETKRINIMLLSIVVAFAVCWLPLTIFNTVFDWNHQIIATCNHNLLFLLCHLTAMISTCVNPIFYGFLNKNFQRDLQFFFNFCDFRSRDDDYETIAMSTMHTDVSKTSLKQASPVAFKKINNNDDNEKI
Text: as §1

mu (MOP) = biological target: T9, mu (MOP) (Homo sapiens, UniProt P35372); assay: BioPrint panel: mu (MOP) (h) (agonist); format: binding; settings: 1 micromolar, read-out: percentage of inhibition of activity
T9 construct: purchased Eurofins Pharma Discovery Services (KinaseProfiler; Cerep BioPrint panel)
Text: as §1

FP = biological target: T10, FP (Homo sapiens, UniProt P43088); assay: BioPrint panel: FP (h) (agonist); format: binding; settings: 1 micromolar, read-out: percentage of inhibition of activity
T10 construct: purchased Eurofins Pharma Discovery Services (KinaseProfiler; Cerep BioPrint panel)
Text: as §1

5-HT2B = biological target: T11, 5-HT2B (Homo sapiens, UniProt P41595); assay: BioPrint panel: 5-HT2B (h) (agonist); format: binding; settings: 1 micromolar, read-out: percentage of inhibition of activity
T11 construct: purchased Eurofins Pharma Discovery Services (KinaseProfiler; Cerep BioPrint panel)
Text: as §1

5-HT2C = biological target: T12, 5-HT2C (Homo sapiens, UniProt P28335); assay: BioPrint panel: 5-HT2C (h) (agonist); format: binding; settings: 1 micromolar, read-out: percentage of inhibition of activity
T12 construct: purchased Eurofins Pharma Discovery Services (KinaseProfiler; Cerep BioPrint panel)
Text: as §1

5-HT3 = biological target: T13, 5-HT3 (Homo sapiens, UniProt P46098); assay: BioPrint panel: 5-HT3 (h) (antagonist); format: binding; settings: 1 micromolar, read-out: percentage of inhibition of activity
T13 construct: purchased Eurofins Pharma Discovery Services (KinaseProfiler; Cerep BioPrint panel)
Text: as §1

5-HT6 = biological target: T14, 5-HT6 (Homo sapiens, UniProt P50406); assay: BioPrint panel: 5-HT6 (h) (agonist); format: binding; settings: 1 micromolar, read-out: percentage of inhibition of activity
T14 construct: purchased Eurofins Pharma Discovery Services (KinaseProfiler; Cerep BioPrint panel)
Text: as §1

5-HT7 = biological target: T15, 5-HT7 (Homo sapiens, UniProt P34969); assay: BioPrint panel: 5-HT7 (h) (agonist); format: binding; settings: 1 micromolar, read-out: percentage of inhibition of activity
T15 construct: purchased Eurofins Pharma Discovery Services (KinaseProfiler; Cerep BioPrint panel)
Text: as §1

V2 = biological target: T16, V2 (Homo sapiens, UniProt P30518); assay: BioPrint panel: V2 (h) (agonist); format: binding; settings: 1 micromolar, read-out: percentage of inhibition of activity
T16 construct: purchased Eurofins Pharma Discovery Services (KinaseProfiler; Cerep BioPrint panel)
T16 sequence (P30518 whole entry): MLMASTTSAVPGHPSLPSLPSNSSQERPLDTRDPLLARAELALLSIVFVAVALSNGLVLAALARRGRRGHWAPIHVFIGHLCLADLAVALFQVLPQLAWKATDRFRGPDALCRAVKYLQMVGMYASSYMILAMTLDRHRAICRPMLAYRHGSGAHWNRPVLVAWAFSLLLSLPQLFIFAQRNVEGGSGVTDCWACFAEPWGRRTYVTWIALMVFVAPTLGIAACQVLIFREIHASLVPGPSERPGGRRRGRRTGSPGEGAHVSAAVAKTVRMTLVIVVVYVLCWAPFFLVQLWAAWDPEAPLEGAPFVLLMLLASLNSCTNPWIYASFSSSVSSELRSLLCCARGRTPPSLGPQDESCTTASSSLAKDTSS
Text: as §1

Cl- channel (GABA-gated) = assay: BioPrint panel: Cl- channel (GABA-gated) (antagonist); format: binding; settings: 1 micromolar
Text: as §1

BACE-1 (beta -secretase) = biological target: T17, BACE-1 (beta -secretase) (Homo sapiens, UniProt P56817); assay: BioPrint panel: BACE-1 (h) (beta -secretase); format: biochemical; settings: 1 micromolar, read-out: percentage of inhibition of activity
T17 construct: purchased Eurofins Pharma Discovery Services (KinaseProfiler; Cerep BioPrint panel)
T17 sequence (P56817 46-501): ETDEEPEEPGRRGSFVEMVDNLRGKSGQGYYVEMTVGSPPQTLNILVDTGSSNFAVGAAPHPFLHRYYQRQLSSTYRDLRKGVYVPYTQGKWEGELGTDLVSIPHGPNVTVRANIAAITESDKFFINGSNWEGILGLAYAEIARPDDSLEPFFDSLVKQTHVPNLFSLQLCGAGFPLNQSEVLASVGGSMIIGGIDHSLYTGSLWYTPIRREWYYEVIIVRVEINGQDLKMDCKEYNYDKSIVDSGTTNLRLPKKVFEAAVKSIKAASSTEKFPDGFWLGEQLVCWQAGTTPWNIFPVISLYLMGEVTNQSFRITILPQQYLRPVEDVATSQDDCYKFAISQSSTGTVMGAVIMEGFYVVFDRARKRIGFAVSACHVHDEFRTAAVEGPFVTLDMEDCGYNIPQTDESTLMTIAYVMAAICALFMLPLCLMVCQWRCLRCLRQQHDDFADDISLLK
Text: as §1

FLT-1 kinase (VEGFR1) = biological target: T18, FLT-1 kinase (VEGFR1) (Homo sapiens, UniProt P17948); assay: BioPrint panel: FLT-1 kinase (h) (VEGFR1); format: biochemical; settings: 1 micromolar, read-out: percentage of inhibition of activity
T18 construct: purchased Eurofins Pharma Discovery Services (KinaseProfiler; Cerep BioPrint panel)
T18 sequence (P17948 27-1338): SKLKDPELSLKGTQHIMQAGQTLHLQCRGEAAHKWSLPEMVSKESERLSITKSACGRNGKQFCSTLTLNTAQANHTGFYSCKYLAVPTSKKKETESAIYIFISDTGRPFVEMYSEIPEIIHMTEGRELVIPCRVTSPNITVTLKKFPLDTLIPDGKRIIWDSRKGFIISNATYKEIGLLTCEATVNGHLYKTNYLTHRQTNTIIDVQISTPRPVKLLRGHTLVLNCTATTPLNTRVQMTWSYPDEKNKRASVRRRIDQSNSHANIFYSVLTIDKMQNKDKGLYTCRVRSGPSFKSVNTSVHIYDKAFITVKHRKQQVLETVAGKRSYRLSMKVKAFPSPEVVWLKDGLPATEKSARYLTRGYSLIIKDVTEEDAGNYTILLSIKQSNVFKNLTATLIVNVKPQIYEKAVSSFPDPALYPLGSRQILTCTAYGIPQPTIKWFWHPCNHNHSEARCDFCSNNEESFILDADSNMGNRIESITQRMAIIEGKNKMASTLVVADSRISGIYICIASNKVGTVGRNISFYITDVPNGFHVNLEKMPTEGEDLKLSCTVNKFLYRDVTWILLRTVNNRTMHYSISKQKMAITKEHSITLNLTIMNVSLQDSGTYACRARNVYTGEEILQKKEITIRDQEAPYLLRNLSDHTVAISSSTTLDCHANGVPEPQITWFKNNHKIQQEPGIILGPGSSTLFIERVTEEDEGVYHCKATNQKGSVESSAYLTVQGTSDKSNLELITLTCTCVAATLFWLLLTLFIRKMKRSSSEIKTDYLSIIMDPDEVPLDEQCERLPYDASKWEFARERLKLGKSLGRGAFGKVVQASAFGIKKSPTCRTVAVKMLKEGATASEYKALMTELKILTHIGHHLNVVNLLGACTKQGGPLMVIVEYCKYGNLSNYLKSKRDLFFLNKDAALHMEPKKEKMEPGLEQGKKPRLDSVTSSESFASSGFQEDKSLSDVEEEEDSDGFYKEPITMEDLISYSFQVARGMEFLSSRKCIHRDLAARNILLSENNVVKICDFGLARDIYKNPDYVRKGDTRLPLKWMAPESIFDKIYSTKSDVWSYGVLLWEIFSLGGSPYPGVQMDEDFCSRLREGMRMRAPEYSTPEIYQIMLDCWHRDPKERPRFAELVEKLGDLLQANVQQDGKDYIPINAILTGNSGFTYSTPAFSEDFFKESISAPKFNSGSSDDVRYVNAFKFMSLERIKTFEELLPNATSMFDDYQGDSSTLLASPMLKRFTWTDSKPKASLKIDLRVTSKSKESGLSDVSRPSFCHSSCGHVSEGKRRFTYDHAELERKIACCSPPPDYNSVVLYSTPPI
Text: as §1

acetylcholinesterase = biological target: T19, acetylcholinesterase (Homo sapiens, UniProt P22303); assay: BioPrint panel: acetylcholinesterase (h); format: biochemical; settings: 1 micromolar, read-out: percentage of inhibition of activity
T19 construct: purchased Eurofins Pharma Discovery Services (KinaseProfiler; Cerep BioPrint panel)
T19 sequence (P22303 32-614): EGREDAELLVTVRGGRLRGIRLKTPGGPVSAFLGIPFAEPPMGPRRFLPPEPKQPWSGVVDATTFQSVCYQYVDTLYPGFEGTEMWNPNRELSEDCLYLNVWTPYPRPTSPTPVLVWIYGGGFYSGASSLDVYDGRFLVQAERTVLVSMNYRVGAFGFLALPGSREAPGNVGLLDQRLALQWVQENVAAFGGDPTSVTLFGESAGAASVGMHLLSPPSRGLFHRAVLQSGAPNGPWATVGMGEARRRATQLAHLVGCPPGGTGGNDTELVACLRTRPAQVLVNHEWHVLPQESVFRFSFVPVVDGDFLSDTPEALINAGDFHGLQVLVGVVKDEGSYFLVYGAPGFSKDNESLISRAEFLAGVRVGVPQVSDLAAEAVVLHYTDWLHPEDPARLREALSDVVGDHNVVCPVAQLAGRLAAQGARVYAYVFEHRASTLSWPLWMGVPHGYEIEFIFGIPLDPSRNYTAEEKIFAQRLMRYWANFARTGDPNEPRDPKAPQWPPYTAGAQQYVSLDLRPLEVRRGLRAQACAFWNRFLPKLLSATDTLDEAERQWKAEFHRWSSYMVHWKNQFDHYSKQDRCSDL
Text: as §1

[3] = test system: COMT (catechol- O-methyl transferase); assay: BioPrint panel: COMT (catechol- O-methyl transferase); format: biochemical; settings: 1 micromolar
Text: as §1

[4] = biological target: T20, xanthine oxidase/ superoxide O2- scavenging (Bos taurus, UniProt P80457); assay: BioPrint panel: xanthine oxidase/ superoxide O2- scavenging; format: biochemical; settings: 1 micromolar, read-out: percentage of inhibition of activity
T20 construct: purchased Eurofins Pharma Discovery Services (KinaseProfiler; Cerep BioPrint panel)
Text: as §1

CHO-K1 cells = assay: CHO-K1 viability (ATPlite); format: cell-based; settings: 25 μM
Method: The viability of NHBE and CHO-K1 cells was quantified using ATP as an indirect read out of the potential cytotoxicity of the compounds. […] Plates were shaken and covered with aluminium foil for 25 min. Luminescence was measured in an Envision reader (Perkin Elmer). Evaluation of viability in CHO-K1 cells was used as an internal compound cytotoxicity standard across cellular assays. […] The plates were incubated for 24 h at 37°C in 5% CO2. After the incubation period, the culture medium was removed and washed with 100 μl of DPBS. Test compounds were dissolved and serially diluted in 100% DMSO. A final 1/100 dilution of each concentration was performed using F12 culture medium with 0.5% FBS. A volume of 100 μl culture medium containing the compounds or 1% DMSO (for control wells) was added to the wells containing the cells and the plate was incubated again 24h. After 24h of compound exposure, cells were washed with DPBS. Then, 100 μl of PBS were added, followed by the addition of 100 μl of ATPlite™ reagent. The plate was shaken for 25 minutes using a microtiter plate shaker. Luminescence was measured using a Luminoskan Ascent luminometer (Thermo Fisher Scientific).
For CHO-K1 viability assays, a standard curve of cells was included in the plate. Luminescence values versus cell number were plotted and the data adjusted to a linear equation. Luminescence values of the samples were interpolated to obtain number of cells. IC50 values were obtained by non-linear regression using Activity Base software (IDBS) and a four-parameter log equation.

Compound Cn1cc(-c2cccc(-c3nc(C(=O)NC4C5CC6CC4CC(O)(C6)C5)c(N)nc3N)c2)cn1 (centres unmarked) [compound 4] has an IC50 ([1]; Homo sapiens, THP-1, M-CSF stimulated, geometric mean, read-out: Activity in reference cell based assay (IC50, μM) (95% CI) Phosphorylation of Akt in THP1 cells) of 0.099 µM, an IC50 ([1]; Homo sapiens, THP-1, individual values, read-out: Cellular activity (IC50, mM) Akt phosphorylation in THP1) of 0.085 µM and an IC50 ([1]; individual values, read-out: Cellular activity (IC50, mM) Akt phosphorylation in THP1) of 0.117 µM. The “cytotoxicity in the 3C system” value ([2]; 1 μM, 3C (HuVEC)) was “cytotoxicity”, the “cytotoxicity in BioMAP activated cellular systems” value ([2]; 3 μM) was “cytotoxic to B cells, fibroblasts and particularly endothelial cells” and the “IL-8 levels in lung fibroblasts (MyoF)” value ([2]; 0.111 and 0.333 μM) was “increased”. The “VCAM-1 expression in endothelial cells (3C)” value ([2]; 0.111 and 0.333 μM) was “reduced”, the “anti-proliferative activity in BioMAP systems” value ([2]; 0.111 and 0.333 μM) was “anti-proliferative to endothelial cells, T and B cells, smooth muscle cells and fibroblasts” and the “sIL10 levels in the endothelial cell / macrophage system (/Mphg)” value ([2]; 0.111 and 0.333 μM) was “decreased”. For the same compound, the “sIL17A, sIL17F and sIL6 levels in the B / PMBC cell system (BT)” value ([2]; 0.111 and 0.333 μM) was “decreased”, the “endpoints inhibited out of 32 measured in the NHBE (BE3C) and NHBE / fibroblasts (B4FT) systems” value ([2]; 0.111–0.333 μM, tPA and Eotaxin 3) was 2 and the inhibition at 1 µM (A2B) was -3%. The “percentage of inhibition of activity” value (BZD (central)) was -11.1%, the inhibition at 1 µM (D2S) was -1.5% and the inhibition at 1 µM (ETA) was -12.5%. The inhibition at 1 µM (GABAA1 (a1, b2, g2)) was -16%, the inhibition at 1 µM (H4) was -1.7% and the inhibition at 1 µM (BLT1 (LTB4)) was 14.2%. The inhibition at 1 µM (motilin) was -4.9%, the inhibition at 1 µM (Y1) was -9.2% and the inhibition at 1 µM (mu (MOP)) was -2.6%. For the same compound, the inhibition at 1 µM (FP) was 4.8%, the inhibition at 1 µM (5-HT2B) was -7.9% and the inhibition at 1 µM (5-HT2C) was -17.7%. It also gave an inhibition at 1 µM (5-HT3) of -0.4%, an inhibition at 1 µM (5-HT6) of -5.3% and an inhibition at 1 µM (5-HT7) of -4.3%. For the same compound, the inhibition at 1 µM (V2) was 0%, the “percentage of inhibition of activity” value (Cl- channel (GABA-gated)) was 0.5% and the inhibition at 1 µM (BACE-1 (beta -secretase)) was -7.3%. The inhibition at 1 µM (FLT-1 kinase (VEGFR1)) was -4.8%, the inhibition at 1 µM (acetylcholinesterase) was 6.2% and the “percentage of inhibition of activity” value [3] was “INTER”. The inhibition at 1 µM [4] was -15.3%.

With COc1c(NC(=O)c2ccc(C)c(-c3nnc4c(NCC(C)(C)C)nccn34)c2)cc(C(C)(C)C)cc1NS(C)(=O)=O [compound 7, reference compound] the “Inhibition of CHO viability at [25 μM] % Inhibition ± SD” value (CHO-K1 cells) was 0.39 ± 11%.
